The source of these data is patent US20220048915A1 (SHANGHAI PHARMACEUTICALS HOLDING CO., LTD., priority 2018, published 2022).

A value given as a limit tells only on which side of the number the result lay.

One data set deals with p38α (Homo sapiens, UniProt Q16539). As to the kind of experiment: In vitro inhibition of p38 kinase (LANCE Ultra TR-FRET). The format is biochemical. Particulars: read-out: Kinase in vitro IC50(nM) p38α.
The target in a further data set is p38β (Homo sapiens, UniProt Q15759). The data set is described as above. The format is biochemical. Particulars: read-out: Kinase in vitro IC50(nM) p38β.
p38β, sequence (Q15759 whole entry): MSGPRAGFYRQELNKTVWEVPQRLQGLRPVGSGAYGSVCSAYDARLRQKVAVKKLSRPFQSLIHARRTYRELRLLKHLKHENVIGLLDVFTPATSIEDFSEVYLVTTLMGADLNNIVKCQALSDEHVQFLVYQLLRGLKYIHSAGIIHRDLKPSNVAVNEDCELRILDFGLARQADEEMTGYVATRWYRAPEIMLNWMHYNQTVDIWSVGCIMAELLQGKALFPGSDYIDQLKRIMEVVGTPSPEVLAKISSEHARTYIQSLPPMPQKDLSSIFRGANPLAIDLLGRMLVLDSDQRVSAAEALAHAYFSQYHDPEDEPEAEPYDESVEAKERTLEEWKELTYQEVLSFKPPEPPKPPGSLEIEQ
A further data set has as its target T1, p38γ (Homo sapiens, UniProt P53778).
T1 sequence (P53778 1-367): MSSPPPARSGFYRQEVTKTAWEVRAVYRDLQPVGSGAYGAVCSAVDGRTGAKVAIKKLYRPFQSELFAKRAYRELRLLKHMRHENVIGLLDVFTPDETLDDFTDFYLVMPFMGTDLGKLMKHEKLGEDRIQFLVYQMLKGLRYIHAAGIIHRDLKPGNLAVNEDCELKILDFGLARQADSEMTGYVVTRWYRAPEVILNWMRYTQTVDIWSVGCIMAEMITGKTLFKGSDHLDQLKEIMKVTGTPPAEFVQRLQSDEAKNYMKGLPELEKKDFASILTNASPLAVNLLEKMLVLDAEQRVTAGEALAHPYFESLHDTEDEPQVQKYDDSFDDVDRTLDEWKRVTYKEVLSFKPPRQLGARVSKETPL
Described as above. The format is biochemical. To be noted: read-out: Kinase in vitro IC50(nM) p38γ. On the procedure:
10 mM of the storage solution of the test compound was taken and placed in a 96-well compound plate, and using DMSO for the compound at an initial concentration of 100×, which was then used as the first concentration and then carried out a 3-fold gradient dilution with DMSO for a total of 10 concentrations. After that, 1 μL of gradient dilutions were added to 19 μL of 1× reaction buffer to prepare 5× compound for later use. […] To the compound-free control well was added 2 μL of the following liquid: 19 μL of 1× reaction buffer with addition of 1 μL of DMSO. To the Min control well was added 2 μL of 250 mM EDTA.
1× of LANCE® Detection value Buffer was used to prepare a 2×Antibody for use, and the amount was 5 μL per well, at the same time 10 mM EDTA was prepared for later use. After the enzyme reaction was carried out for 30 minutes, 5 μL 10 mM EDTA was added to the 384-well plate and the reaction was carried out at room temperature for 5 minutes. Afterwards, 5 μL LANCE® Ultra Europium-anti-phospho-eIF4E-binding protein 1 (Thr37/46) was added to the 384-well plate and the reaction was carried out at room temperature for one hour.

The subject of a further data set is BV-2 cells. As to the kind of experiment: Inhibition of inflammation in LPS-stimulated BV-2 cells (ELISA of inflammatory factors). To be noted: Mus musculus, 100 ng/mL LPS 4 hours; for Emax: read-out: BV-2 Max Inh. (%); for IC50: read-out: BV-2 Rf IC50. The format is cell-based. On the procedure:
Normal cultured 8th passage BV-2 cells were taken, and inoculated separately in 96-well plates at a certain cell density. The cell culture plates were cultured at 37° C. and 5% CO2 for 24 hours.
After inoculating the plate for 24 hours, the cell culture medium was removed, and then 100 μL of a 4-fold gradient dilution compound starting from 10,000 nM prepared in DMEM+10% FBS, where High control and Low control contained 0.1% DMSO without compound. With 100 μL per well, the cell culture plate was cultured at 37° C. with 5% CO2 for one hour.
The compound-containing cultures were removed. 100 ng/mL of LPS was prepared with DMEM+10% FBS culture medium, and then the compound was diluted in a 4-fold gradient from 10,000 nM with LPS-containing culture medium. In low control, the compound was replaced with 0.1% DMSO. In High control, 0.1% DMSO was prepared with culture medium without LPS. 100 μL per well, and the cell culture plates were cultured at 37° C. with 5% CO2 for 4 hours.
After 4 hours of LPS stimulation, 110 μL of the culture solution was aspirated, and centrifuged at 2000 rpm for 2 minutes. A further 90 μl of supernatant was aspirated and immediately put into −20° C. for freezing.
ELISA kits were used to detect the expression of inflammatory factors such as IL-10, TNFα, etc. The OD450 signal values were measured by microplate reader. The in vitro inhibitory activity of the compounds was calculated according to the following formula: Inhibition rate: Inhibition rate (%)=(signal value of control−signal value of administration)/(high signal value of control−low signal value of control)×100%. And according to the inhibition rate of each concentration, Graphpad Prism 5.0 was used to curve fit the […] signal values at each concentration and calculate the corresponding IC50, which is shown in Table 1.
For orientation: An ELISA detects its analyte on a solid surface through an enzyme-linked reagent.

Data set [1] is described as follows: Pharmacokinetic properties in mice. It counts as in vivo, ICR mice. Particulars: for absorption compared with the positive compound VX-745 at the same dose: 10 mg/kg; for Thalf (iv): iv 3 mg/kg; for Cmax / MRT / Tmax: male, ICR, mouse, plasma; for Cmax / MRT / Tmax / AUClast (po): po 10 mg/kg; for BA: po 10 mg/kg vs iv 3 mg/kg; for AUClast (po): 5-1440 minutes. On the procedure: Forty-eight male ICR mice, weighing 18-22 g (provided by Shanghai Xipuerbikai Laboratory Animal Co., Ltd, Certificate No.: 20130016008116). The mice were […] for 12-16 hours before the experiment but water was allowed.
Blood samples were collected from the fundus vein of mice before and at 2, 5, 15, 30, 60, 90, 120, 240, 480, 600, and 1440 minutes of the administration, respectively.
Blood samples were collected from the fundus vein of mice before and at 5, 15, 30, 60, 90, 120, 240, 480 and 1440 minutes of administration, respectively.
2-3 time points were taken for each mouse. The mice were sacrificed at 5, 15, 30, 60 and 1440 minutes after the administration (3 mice per time point), and the brains were taken, rinsed with saline, dried on filter paper and weighed.
Blood samples were centrifuged at 8000 rpm for 5 minutes, and supernatant plasma was taken. To 50 μL of plasma samples was added 300 μL of acetonitrile containing internal standard (propranolol, 25 ng/mL) to precipitate the protein. After vortexing for 10 minutes and centrifuging at 6000 g and 4° C. for 10 minutes, the supernatant was taken and placed in a 96-well plate for determination of drug concentration in plasma by UPLC/MS-MS.

p38α, sequence (Q16539 whole entry): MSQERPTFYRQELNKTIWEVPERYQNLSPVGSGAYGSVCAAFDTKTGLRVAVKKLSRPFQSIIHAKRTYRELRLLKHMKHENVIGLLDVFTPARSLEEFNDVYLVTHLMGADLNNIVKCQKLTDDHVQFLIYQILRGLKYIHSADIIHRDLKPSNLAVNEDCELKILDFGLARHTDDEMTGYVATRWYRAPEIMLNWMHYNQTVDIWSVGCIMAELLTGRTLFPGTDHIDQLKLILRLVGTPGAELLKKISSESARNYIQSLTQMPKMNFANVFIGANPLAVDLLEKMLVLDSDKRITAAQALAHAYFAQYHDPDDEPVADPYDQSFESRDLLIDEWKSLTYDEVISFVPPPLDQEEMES

Regarding `O=c1ncn2nc(Oc3c(F)ccc(F)c3Cl)ccc2c1-c1c(Cl)cccc1Cl` [Compound I-29, 2-(2-chloro-3,6-difluorophenoxy)-5-(2,6-dichlorophenyl)-6H-pyrimido[1,6-b]pyridazin-6-one], the IC50 (in general, the midpoint of a concentration-inhibition curve) at p38α was 34.1 nM; on p38β it was 406 nM; on p38γ, > 3330 nM; in the data set with BV-2 cells, 678 nM. Further, the Emax with BV-2 cells is -50%.
For `O=c1ncn2nc(Oc3ccc(F)c(Br)c3)ccc2c1-c1c(Cl)cccc1Cl` [Compound I-5, 2-(3-bromo-4-fluorophenoxy)-5-(2,6-dichlorophenyl)-6H-pyrimido[1,6-b]pyridazin-6-one] the same measures were 49.3 nM, 389 nM, > 3330 nM, 94.3 nM and 44%.
`O=c1ncn2nc(Oc3ccc(F)cc3Cl)ccc2c1-c1c(Cl)cccc1Cl` [Compound I-18, 2-(2-chloro-4-fluorophenoxy)-5-(2,6-dichlorophenyl)-6H-pyrimido[1,6-b]pyridazin-6-one]: the IC50 on p38α is 14.8 nM; at p38β, 97.1 nM; on p38γ it was > 3330 nM; in the data set on BV-2 cells it was 8.58 nM. For the same compound, in the data set with BV-2 cells, the Emax was found to be 50.6%.
As to `O=c1ncn2nc(Oc3ccccc3F)ccc2c1-c1c(Cl)cccc1Cl` [Compound I-27, 5-(2,6-dichlorophenyl)-2-(2-fluorophenoxy)-6H-pyrimido[1,6-b]pyridazin-6-one], the IC50 was 11.7 nM on p38α, 109 nM on p38β, > 3330 nM on p38γ and 18.8 nM in the data set on BV-2 cells. Further, the Emax in the data set on BV-2 cells was 41.9%.
The corresponding values for `O=c1ncn2nc(Oc3cccc(Cl)c3Cl)ccc2c1-c1c(Cl)cccc1Cl` [Compound I-12, 2-(2,3-dichlorophenoxy)-5-(2,6-dichlorophenyl)-6H-pyrimido[1,6-b]pyridazin-6-one] are 32.8 nM, 302 nM, > 3330 nM, 176 nM and 49.5%.
As to `Cc1ccccc1-c1c(=O)ncn2nc(Oc3ccc(F)cc3F)ccc12` [Compound I-50, 2-(2,4-difluorophenoxy)-5-(o-methylphenyl)-6H-pyrimido[1,6-b]pyridazin-6-one], on p38α, the IC50 worked out at 34.2 nM. Also, the concentration for half-maximal inhibition (IC50) on p38β amounted to 1090 nM. For the same compound, the IC50 at p38γ was > 3330 nM. In addition, in data set [1], the “absorption compared with the positive compound VX-745 at the same dose” value is listed as “better”; the “Thalf (iv)” value is reported as 1.93 h; the Cmax (usually the peak of the concentration-time curve) amounted to 928 ng/mL; the MRT (commonly a mean duration of stay, worked out from the concentration-time curve) came out at 3.05 h. Also, in data set [1], the time to peak (Tmax) (commonly the time from dosing to the highest level) is 0.83 h, the BA turned out to be 84.9% and the “AUClast (po)” value is 3107 (h)*(ng/mL).
Regarding `O=c1ncn2nc(Oc3ccccc3Br)ccc2c1-c1c(Cl)cccc1Cl` [Compound I-17, 2-(2-bromophenoxy)-5-(2,6-dichlorophenyl)-6H-pyrimido[1,6-b]pyridazin-6-one], the half-maximal inhibitory concentration (IC50) on p38α is 34.8 nM; on p38β it was 316 nM; on p38γ, > 3330 nM; in the data set with BV-2 cells it was 95.8 nM. In addition, the Emax in the data set on BV-2 cells was -60%.
The corresponding values for `O=c1ncn2nc(Oc3cccc(F)c3F)ccc2c1-c1c(Cl)cccc1Cl` [Compound I-23, 5-(2,6-dichlorophenyl)-2-(2,3-difluorophenoxy)-6H-pyrimido[1,6-b]pyridazin-6-one] are 46.9 nM, 243 nM, > 3330 nM, 17.2 nM and -50%.
With `O=c1ncn2nc(Oc3ccc(Br)cc3)ccc2c1-c1c(Cl)cccc1Cl` [Compound I-39, 2-(4-bromophenoxy)-5-(2,6-dichlorophenyl)-6H-pyrimido[1,6-b]pyridazin-6-one], the IC50 was 35.6 nM on p38α, 602 nM on p38β, > 3330 nM on p38γ and 296 nM in the data set on BV-2 cells. Also, in the data set on BV-2 cells, the Emax stood at 56.6%.
As to `O=c1ncn2nc(Oc3ccc(F)cc3F)ccc2c1-c1cc(Cl)ccc1Cl` [Compound I-46, 5-(2,5-dichlorophenyl)-2-(2,4-difluorophenoxy)-6H-pyrimido[1,6-b]pyridazin-6-one], on p38α, the IC50 was 19.7 nM. Moreover, on p38β, the IC50 stood at 403 nM. Moreover, at p38γ, the half-maximal inhibitory concentration (IC50) was > 3330 nM. In data set [1], the “absorption compared with the positive compound VX-745 at the same dose” value is on record as “better”, the “Thalf (iv)” value is 3.96 h, the Cmax is 891 ng/mL and the MRT is 4.86 h. Besides, in data set [1], the Tmax stood at 2 h, the BA worked out at 119.3% and the “AUClast (po)” value is 4016 (h)*(ng/mL).
On to `O=c1ncn2nc(OC3CCCC=C3Cl)ccc2c1-c1c(Cl)cccc1Cl` (stereo not drawn) [Compound I-42, 2-((2-chlorocyclohex-2-en-1-yl)oxy)-5-(2,6-dichlorophenyl)-6H-pyrimido[1,6-b]pyridazin-6-one], for which the figures for the half-inhibitory concentration (IC50) on p38α, at p38β and on p38γ were 228 nM, 686 nM and > 3330 nM, respectively.
For `N#Cc1ccc(Oc2ccc3c(-c4c(Cl)cccc4Cl)c(=O)ncn3n2)cc1` [Compound I-26, 4-((5-(2,6-dichlorophenyl)-6-oxo-6H-pyrimido[1,6-b]pyridazin-2-yl)oxy)benzonitrile] the same measures were > 3330 nM, > 3330 nM and > 3330 nM.
The corresponding values for `O=c1ncn2nc(Oc3ccc(F)cc3F)ccc2c1-c1ccc(Cl)cc1Cl` [Compound I-56, 5-(2,4-dichlorophenyl)-2-(2,4-difluorophenoxy)-6H-pyrimido[1,6-b]pyridazin-6-one] are 19.6 nM, 479 nM and > 3330 nM.
Regarding `COC(=O)c1ccc(OC)c(-c2c(=O)ncn3nc(Oc4ccc(F)cc4F)ccc23)c1` [Compound I-55, methyl 3-[2-(2,4-difluorophenoxy)-6-oxo-pyrimido[1,6-b]pyridazin-5-yl]-4-methoxybenzoate], the IC50 at p38α was 17.7 nM; at p38β, 117 nM; on p38γ, > 3330 nM.
